In patent US20110065734A1, “NOVEL BIFUNCTIONAL COMPOUNDS WHICH INHIBIT PROTEIN KINASES AND HISTONE DEACETYLASES” (4SC AG, priority 2007, published 2011):

Experiments:
HDACs 4 to 8 = settings: read-out: HDACs 4 to 8 IC50; Kalita et al. 2005; cited from earlier work
HDAC11 = biological target: T1, HDAC11 (Homo sapiens, UniProt Q96DB2); settings: Kalita et al. 2005; one range for HDAC1, 2, 3 and 11; cited from earlier work
T1 sequence (Q96DB2 1-347): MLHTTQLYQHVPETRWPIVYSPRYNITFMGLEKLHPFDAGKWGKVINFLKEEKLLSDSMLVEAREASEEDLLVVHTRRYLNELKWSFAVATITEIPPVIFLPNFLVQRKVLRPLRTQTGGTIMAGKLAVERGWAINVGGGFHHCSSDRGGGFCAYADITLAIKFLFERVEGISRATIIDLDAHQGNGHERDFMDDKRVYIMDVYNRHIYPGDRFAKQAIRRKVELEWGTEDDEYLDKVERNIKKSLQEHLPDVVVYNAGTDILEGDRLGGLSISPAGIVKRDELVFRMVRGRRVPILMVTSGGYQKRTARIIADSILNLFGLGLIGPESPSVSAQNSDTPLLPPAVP

[1] = test system: histone H3 hyperacetylation in HeLa cervical carcinoma cells; assay: Cellular histone H3 hyperacetylation assay; assay type: cell-based; settings: Homo sapiens, 24 h, only a range over the listed compounds is given, read-out: Induction of histone H3 hyperacetylation in HeLa cervical carcinoma cells EC50
[2] = test system: HeLa cervical carcinoma cell line; assay: Cellular cytotoxicity assay (Alamar Blue), HeLa; assay type: cell-based; settings: Homo sapiens, 72 h, only a range over the listed compounds is given, read-out: Cytotoxicity towards HeLa cervical cell line IC50
[3] = test system: Cal27 head and neck cancer cell line; assay: Cellular cytotoxicity assay (Alamar Blue), Cal27; assay type: cell-based; settings: Homo sapiens, CAL-27; 72 h; only a range over the listed compounds is given; read-out: Cytotoxicity towards Cal27 cell line IC50
Protocol: The anti-proliferative activity of the chimeric HDAC and protein kinase inhibitory chimeric compounds of the present invention was evaluated using HeLa cervical carcinoma, A549 NSCLC, SKOV3 ovarian carcinoma, Cal27 head and neck cancer, K562 chronic myeloid leukemia (CML) and EOL1 acute hypereosinophilic myeloid leukemia, cell lines. For quantification of cellular proliferation/living cells the Alamar Blue (Resazurin) cell viability assay was applied (O'Brien et al. Eur Biochem. 267, 5421-5426, 2000). In this assay Resazurin is reduced to the fluorescent resorufin by cellular dehydrogenase activity, correlating with viable, proliferating cells. The examples were dissolved as 20 mM solutions in dimethylsulfoxide (DMSO) and subsequently diluted in semi-logarithmic steps. Cell lines were seeded at respective density into 96 well flat bottom plates in a volume of 200 μl per well. 24 h after seeding 1 μl each of the compound dilutions were added into each well of the 96 well plate. Each compound dilution was tested as quadruplicates. Wells containing untreated control cells were filled with […] DMEM medium containing 0.5% v:v DMSO. The cells were then incubated with the substances for 72 h at 37° C. in a humidified atmosphere containing 5% carbon dioxide. To determine the viability of the cells, 20 μl of an Resazurin solution (Sigma; 90 mg/l) were added. After 4 h incubation at 37° C. the fluorescence was measured at an extinction of 544 nm and an emission of 590 nm. For the calculation of the cell viability the emission value from untreated cells was set as 100% viability and the emission rates of treated cells were set in relation to the values of untreated cells. Viabilities were expressed as % values. The corresponding IC50 values of the compounds for cytotoxic activity are determined from the concentration-effect curves by means of non-linear regression.

A549 NSCLC cell line = assay: Cellular cytotoxicity assay (Alamar Blue), A549; assay type: cell-based; settings: Homo sapiens, A549; 72 h; only a range over the listed compounds is given; read-out: Cytotoxicity towards A549 NSCLC cell line IC50
[4] = biological target: T2, recombinant HDAC1 isolated from HEK293 cells with heterologous HDAC1 expression (Homo sapiens, UniProt Q13547); assay: Fluorimetric rHDAC1 activity assay; assay type: biochemical; settings: only a range of IC50 over the compounds given; read-out: rHDAC1 inhibitory activity IC50
T2 construct: made in house

[5] = test system: SKOV3 ovarian carcinoma cell line; assay: Cellular cytotoxicity assay (Alamar Blue), SKOV3; assay type: cell-based; settings: Homo sapiens, SK-OV-3; 72 h; only a range over the listed compounds is given; read-out: Cytotoxicity towards SKOV3 cell line IC50
[6] = test system: cellular HDAC activity in HeLa cells; assay: Quantification of cellular HDAC activity in HeLa cells; assay type: cell-based, human; settings: 4 h compound incubation; for lists of compounds only a range is printed; read-out: Inhibition of cellular HDAC activity in HeLa cells IC50
Protocol: To assess the cellular potency of histone deacetylase inhibitors, an assay recently described was applied (Ciossek et al. Anal Biochem e-pub 2007). 5×10^3 HeLa cervical carcinoma cells/well (ATCC CCL-2) were cultivated in 200 μl/well DMEM (containing 10% FCS) in cell culture microliter plates (white, 96 well flat bottom plates suitable for fluorimetric analysis; Costar Art. No. 3917). Cells were cultivated for 24 h under standard cell culture conditions at 37° C. and 5% CO2 to allow cell attachment and proliferation. The compounds of the present invention were added at different concentrations (dilutions done in DMSO) and incubation continued for 4 h at 37° C. under cell culture conditions (each concentration was tested in quadruplicate). […] After discarding the culture medium, 100 μl/well substrate solution (200 μM Boc-K(Ac)-AMC in DMEM (containing 10% FCS), stock solution diluted 1:250) were added and incubation continued at 37° C. under cell culture conditions for further 3 h. […] After incubation for 5 min at 37° C., cells were lysed by addition of 100 μl/well lysis buffer (50 mM TRIS pH 8, 137 mM NaCl, 2.7 mM KCl, 1 mM MgCl2, 1 vol % NP-40) and further incubation for 20 min at 37° C. Finally, the amount of AMC was quantified using the Wallac Victor device (extinction λ=355 nm, emission at λ=460 inn).

T2 sequence (Q13547 whole entry): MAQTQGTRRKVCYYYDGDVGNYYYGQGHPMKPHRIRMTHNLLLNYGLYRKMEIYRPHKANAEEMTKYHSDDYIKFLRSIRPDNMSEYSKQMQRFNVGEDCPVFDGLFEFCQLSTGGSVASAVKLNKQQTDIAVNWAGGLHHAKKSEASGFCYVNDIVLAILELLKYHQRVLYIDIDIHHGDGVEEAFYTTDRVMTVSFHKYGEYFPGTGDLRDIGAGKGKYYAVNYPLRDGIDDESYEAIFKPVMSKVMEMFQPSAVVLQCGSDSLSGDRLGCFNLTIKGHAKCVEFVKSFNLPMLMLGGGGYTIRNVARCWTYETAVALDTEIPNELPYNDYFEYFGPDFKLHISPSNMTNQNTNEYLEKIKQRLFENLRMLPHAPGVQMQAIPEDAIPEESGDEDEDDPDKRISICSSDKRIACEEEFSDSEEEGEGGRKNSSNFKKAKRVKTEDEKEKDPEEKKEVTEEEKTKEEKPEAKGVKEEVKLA

| SMILES | IC50 (HDACs 4 to 8) | IC50 (HDAC11) | EC50 [1] | IC50 [2] | IC50 [3] | IC50 (A549 NSCLC cell line) | IC50 [4] | IC50 [5] | IC50 [6] |
| --- | --- | --- | --- | --- | --- | --- | --- | --- | --- |
| Nc1ccccc1NC(=O)c1ccc(CNc2nccc(-c3cccnc3)n2)cc1 [MGCD0103] | > 20000 nM | 100 to 2000 nM | – | – | – | – | – | – | – |
| O=C(/C=C/c1cccc(-c2ccc3ncnc(Nc4ccc(OCc5cccc(F)c5)c(Cl)c4)c3c2)c1)NO [[9], E-3-(3-(4-(3-chloro-4-(3-fluorobenzyloxy)phenylamino)quinazolin-6-yl)phenyl)-N-hydroxy-acrylamide] | – | – | ≥ 3650 nM | 910 to 9400 nM | ≥ 280 nM | ≥ 1100 nM | ≥ 35.3 nM | ≥ 1000 nM | 430 nM |
